Structures are written as SMILES.

The values below come from a melting point compilation (Tetko et al.; mined from patent text by program, amines drawn as free bases though some values may be those of a salt).

`COc1ccc2[nH]cc(CCCCN3CC=C(c4cccs4)CC3)c2c1` showed a melting point of 158 °C.

`CNc1cc(NS(=O)(=O)c2cccc(Cl)c2)nc(NC)n1` showed a melting point of 167 to 168 °C.

`Cc1cc(C)cc(C(=O)c2c(C(C)C)c(=O)[nH]c(=O)n2CC2=CC(CO)C(CO)C2)c1` (stereo unspecified) registered a melting point of 81 to 82 °C.

For the compound `COC(=O)NC1CCc2ccc(Cl)cc2C1` (stereo unspecified), the melting point is 99 to 101 °C.

The compound `CCc1ccccc1C(N)=NO` returned a melting point of 54 to 55 °C.

Compound `COc1ccc(CCNC(=O)N(C)O)cc1OCc1ccccc1` had a melting point of 125 to 126 °C.

`COC(=O)c1ccc(-c2ccc(OC)c(OC3CCCC3)c2)cc1`: the melting point was in the range of 128 to 131 °C.

As to `COc1ccc(S(=O)(=O)N2C(=O)[C@@](c3ccccc3OC)(N3C[C@H](OC(=O)C4CCCCC4)C[C@H]3C(=O)N(C)C)c3cc(Cl)ccc32)c(OC)c1`, the melting point lay within 197 to 198 °C.

The compound `CCOC(=O)c1c(CC)nn2ccc3oc(C)cc3c12` returned a melting point of 89 to 90 °C.

The compound `CCCCCCCCCCCC#Cc1ccccc1C=C(P(=O)(O)O)P(=O)(O)O` displayed a melting point of 141 to 142 °C.

Consider `CC(Cn1nccn1)n1nnc2cc3c(=O)n(C(C)Cn4ncnn4)nnc3cc2c1=O` (stereo unspecified), for which the melting point fell in the range of 139 to 140 °C.

Take `O=[N+]([O-])c1ccccc1Sc1ccc(Cl)cc1`: the melting point lay in the range of 91 to 93 °C.

Regarding `CC(=O)C(C)c1ccc2c(c1)Cc1cccnc1O2` (stereo unspecified), the melting point was 136 °C.

With `CC(C)(C)OOC(C)(C)c1ccc(C(C)(C)OOC(C)(C)C)cc1`, the melting point lay within 76 to 77 °C.

`Clc1cc(Nc2ccccc2)c(Cl)nn1` displayed a melting point of 137 to 139 °C.

The compound `CC1(C)COc2ccc(C[C@@H](NC(=O)c3cccc4c3C=CCCC4)[C@@H](O)c3cccc(Cl)c3)cc21` (racemic) had a melting point of 149 to 150 °C.

The compound `CC(C)(C)OC(=O)Nc1ccccc1NC(=O)c1ccc(C(=O)Nc2cccc(Nc3nc(-c4cccnc4)cs3)c2)cn1` had a melting point of 220 to 222 °C.

With `COC(=O)C(C)=Cc1ccc(OCCCNc2ccc(Cl)cc2)cc1`, the melting point was in the range of 62 to 64 °C.

Compound `O=C(O)Cc1ccc(OCCCc2cc(-c3ccc(C(F)(F)F)cc3)no2)cc1` registered a melting point of 127 to 128 °C.

Regarding `CC(CCC(=O)N(Cc1ccccc1)Cc1ccccc1)(c1ccc(O)cc1)c1ccc(O)cc1`, the melting point lay within 203 to 207 °C.

Compound `Cc1cc(N2CC=C(C(N)=O)CC2)c2cccc(-c3ccc(Cl)cc3Cl)c2n1` returned a melting point of 264 to 266 °C.

For the compound `CCCN1C(=O)c2cscc2Nc2ccccc21`, the melting point lay within 166 to 167 °C.

For `CC#CCc1c(C)nc2cc(C)nn2c1N`, the melting point lay in the range of 215 to 219 °C.

As to `Oc1ccc2c(c1)SCCc1c-2n(CCCCCN2CCCCC2)c2ccc(O)cc12`, the melting point was in the range of 195 to 196 °C.

Take `Nc1nc(-c2cc(Cl)ccc2Cl)nc(N2CCN(c3ncccn3)CC2)n1`: the melting point lay within 224 to 225 °C.

Take `CC(Cc1cccc([N+](=O)[O-])c1)[N+](=O)[O-]` (stereo unspecified): the melting point fell in the range of 56 to 58 °C.

As to `CCOC(=O)c1cn(CC)c2ncncc2c1=O`, the melting point was 136 °C.

In turn, `COC(=O)c1ccc(C(=O)c2cc3c(cc2OCc2ccc(C(C)(C)C)cc2)C(C)(C)CCC3(C)C)cc1` registered a melting point of 168 to 170 °C.

`COc1cc(F)ccc1-c1ccnc(NC(=O)[C@H]2CC[C@@H](NC(C)=O)C2)c1`: the melting point lay in the range of 125 to 129 °C.

For the compound `CC(C)(C)OC(=O)Nc1ccc(-c2ccccc2F)cc1NC(=O)CC(=O)c1cccc(-n2ccnc2)c1`, the melting point lay within 50 to 58 °C.

`COc1ccc([N+](=O)[O-])c(CBr)c1` returned a melting point of 64 to 65 °C.

As to `C=CCOc1cccc2c1ONC(=O)C2`, the melting point lay in the range of 174 to 175 °C.

In the case of `C=Cc1cc(CC(=O)O)ccc1OCc1ccc2ccccc2n1`, the melting point was 173 °C.

Compound `Cn1cc2cc3ncc(-c4ccc(Cl)s4)nc3cc2n1` displayed a melting point of 222 to 224 °C.

Regarding `O=C1CCN(Cc2ccc(C(F)(F)F)cc2)CC1C(c1ccc(F)cc1)c1ccc(F)cc1` (stereo unspecified), the melting point is 126 to 127 °C.

As to `Oc1cccc2csnc12`, the melting point was in the range of 99 to 100 °C.

For `Cc1c(NC(=O)c2ccc(-c3ccc(F)cc3)cc2F)ccc2cc(CN3CCCC3)cnc12`, the melting point was in the range of 176 to 178 °C.

As to `Cn1cc2c(=O)n(-c3ccc(Cl)cc3)nc-2c2ccccc21`, the melting point lay within 322 to 323 °C.

`O=C(O)c1cc(NC(=O)C(CS)Cc2ccccc2)ccc1Cl` (stereo unspecified) gave a melting point of 190 to 192 °C.

As to `CCCCOC(=O)Oc1ccc(-c2ccc(C#N)cc2)cc1`, the melting point was in the range of 64.8 to 65.7 °C.

In the case of `COC(=O)C(CSCc1ccc(OC)cc1)NC(=O)NCCCCC1CCSS1` (stereo unspecified), the melting point fell in the range of 105 to 107 °C.

The compound `CC(C)=CCN(CCC12CC3CC(CC(C3)C1)C2)C(=O)NCCCc1ccncc1` gave a melting point of 93 to 96 °C.

`O=NN(CC(=O)O)C([PH](=O)Oc1ccccc1)[PH](=O)Oc1ccccc1` (stereo unspecified) registered a melting point of 40 to 44 °C.

`O=C(Nc1ccc(F)cc1)c1cccc(Cl)n1` had a melting point of 98 °C.

`CN(C)S(=O)c1nc2ccccc2s1` (stereo unspecified) displayed a melting point of 121 to 122 °C.

With `C#CCOc1ccc(C)cc1S(N)(=O)=O`, the melting point is 169 to 170 °C.

As for `CSC(=S)C1(c2ccccn2)OCCCS1` (stereo unspecified), the melting point came to 116 °C.

`CCCCc1c(Cl)ncnc1Cl`: the melting point was in the range of 62 to 63 °C.

On to `CC(=O)NC(=O)C(C)SC(C)=O` (stereo unspecified), for which the melting point was 91 to 93 °C.

`Cc1ncccc1NC(=NC#N)NC(NC(=O)CCCCc1ccccc1)C(C)(C)C` (stereo unspecified) registered a melting point of 133 to 134 °C.

For `Cc1cc(N(C)c2ccn(-c3ccccc3)n2)cc(C)c1O`, the melting point is 139 to 140 °C.

In turn, `CC(C)(C)OC(=O)Nc1ccc(OC2CN(C(c3ccccc3)c3ccccc3)C2)cc1` displayed a melting point of 149 to 151 °C.

The compound `O=c1ccc2ccc(OCCCCN3CCCN(c4cccc(Cl)c4Cl)CC3)cc2[nH]1` displayed a melting point of 55 to 57 °C.

On to `O=C1OC(Br)c2cc(Br)ccc21` (stereo unspecified), for which the melting point is 100 °C.

`OCc1cc2cc(Br)ccc2[nH]1`: the melting point lay within 111 to 112 °C.

Compound `CC(C)(C)c1cc(I)c(O)c(C=NO)c1` gave a melting point of 154 to 156 °C.

In the case of `O=c1[nH]c(=O)n(CCCCCCl)c2ccccc12`, the melting point is 162 to 163 °C.

On to `N#CC(OC1CCCCO1)c1ccc(Cl)c(Cl)c1` (stereo unspecified), for which the melting point was 61 °C.

In turn, `COC(=O)COc1cccc(CN(C)c2cnc(-c3ccccc3)c(-c3ccccc3)n2)c1` returned a melting point of 132 to 134 °C.

`CCOC(=O)C(=O)CC(=O)c1cn(Cc2cccc(OC)c2)c2ccccc2c1=O` returned a melting point of 177 to 179 °C.

With `CCCCN1C(=O)CC(C(=O)Nc2nccs2)C(=O)c2ccc(Cl)cc21` (stereo unspecified), the melting point fell in the range of 238 to 240 °C.

Compound `O=C(NCc1cc(C(F)(F)F)cc(C(F)(F)F)c1)c1ccccc1-c1ccccc1` came in with a melting point of 86 to 87 °C.

`CCOC(=O)Cc1c(C(F)(F)F)c2ccc(O)cc2oc1=O` had a melting point of 112 to 114 °C.

In turn, `O=C(O)c1ncsc1-c1cccc(I)c1` yielded a melting point of 186 °C.

With `COc1ccc(NC(=O)CCCC(O)c2ccc(OC)cc2)cc1` (stereo unspecified), the melting point was in the range of 118 to 120 °C.

For the compound `Cc1cc2ncc(-c3ccsc3)nc2cc1C`, the melting point is 142 to 144 °C.
